Results taken from US20160185797A1, “ALKYNYL ALCOHOLS AND METHODS OF USE” (Genentech, Inc., priority 2013, published 2016).
pIC50: −log10 of the molar value.

Tests used:
[1] = biological target: T1, nuclear factor-kappa B (NF-kB)-inducing kinase (NIK) (Homo sapiens, UniProt Q99558); assay: NIK enzyme inhibition assay (Transcreener ADP fluorescence polarization, NIK ADP-FP); type: biochemical
T1 construct: made in house; host or cells: baculovirus-infected insect cells
Method: NIK Enzyme Inhibition Assay:
The ability of the nuclear factor-kappa B (NF-kB)-inducing kinase (NIK) to catalyze the hydrolysis of adenosine-5′-triphosphate (ATP) was monitored using the Transcreener ADP (adenosine-5′-diphosphate) assay (BellBrook Labs). […] Reactions were quenched by the addition of 20 mM 2,2′,2″,2′″-(ethane-1,2-diyldinitrilo)tetraacetic acid and 0.01% Brij 35. The tracer bound to the antibody was displaced by the ADP generated during the NIK reaction, which causes a decrease in fluorescence polarization that was measured by laser excitation at 633 nm with a Fluorescence Correlation Spectroscopy Plus reader (Evotec AG). Equilibrium dissociation constant (Ki) values for NIK inhibitors are calculated from plots of activity vs. inhibitor concentration using Morrison's quadratic equation that accounts for the potential of tight binding, and by also applying the conversion factor that accounted for competitive inhibition and the concentration of substrate used in the assay relative to its Michaelis constant (Km).

[2] = test system: REL-A (p65) nuclear translocation in HeLa cells; assay: REL-A (p65) nuclear translocation assay in HeLa cells, TNF-α stimulated (classical NF-kB signaling), high content imaging; type: cell-based; settings: Homo sapiens, HeLa, compound 4.5 h, then 10 ng/mL TNF-α for 30 minutes, read-out: REL-A HeLa Transloc Assay (IC50)
Method: (§1) Several assays were developed to profile the cellular activities of NIK inhibitors.
(§2) (2) A second set of cell assay are used to define the selectivity of NIK inhibitors toward inhibition of classical vs. non-classical NF-kB signaling and rely on quantification of the nuclear translocation of p52 (NF-kB2) and REL-A (p65) using high content cellular imaging. For the p52 (non-classical NF-kB signaling) nuclear translocation assay, HeLa cells are treated with different concentrations of compounds (0.2% DMSO final) in medium containing 10% fetal bovine serum and then stimulated with 100 ng/mL of an anti-lymphotoxin beta receptor antibody (R&D Systems) for 5 hours. In the REL-A nuclear translocation assay, HeLa cells are incubated with compounds (0.2% DMSO final) for 4.5 hours in medium containing 10% fetal bovine serum before stimulating them with 10 ng/mL tumor necrosis factor (TNF)-α (R&D Systems) for 30 minutes. Cells are fixed with 4% paraformaldehyde, permeabilized by adding 0.1% Triton X-100 in phosphate buffered saline, and then are incubated with either 2 ug/mL anti-p52 antibody (Millipore) or 400 ng/mL anti-REL-A (p65) antibody (Santa Cruz Biotechnology). Finally, the cells are incubated with an Alexa488-labeled secondary antibody (Invitrogen) and DRAQ5 DNA stain (Biostatus). Imaging is carried out using an Opera reader (Perkin Elmer) and data are analyzed with the aid of Acapella software (Perkin Elmer). The p52 or REL-Atranslocation into the nucleus is quantified by the ratio of the nuclear to cytoplasmic signal intensity. […] The compounds in listed in Table 1 have the corresponding inhibitory value (IC50 in micromolar) for NIK p52 Translocation Assay as set forth in Table 2.
(§3) The compounds in listed in Table 1 have the corresponding inhibitory values (IC50 in micromolar) for the Translocation Assays as set forth in Table 2.

[3] = test system: p52 (NF-kB2) nuclear translocation in HeLa cells; assay: p52 (NF-kB2) nuclear translocation assay in HeLa cells, anti-lymphotoxin beta receptor antibody stimulated (non-classical NF-kB signaling), high content imaging; type: cell-based; settings: Homo sapiens, 100 ng/mL anti-lymphotoxin beta receptor antibody for 5 hours, read-out: p52 HeLa Transloc Assay (IC50)
Method: as §1, §2, §3

T1 sequence (Q99558 whole entry): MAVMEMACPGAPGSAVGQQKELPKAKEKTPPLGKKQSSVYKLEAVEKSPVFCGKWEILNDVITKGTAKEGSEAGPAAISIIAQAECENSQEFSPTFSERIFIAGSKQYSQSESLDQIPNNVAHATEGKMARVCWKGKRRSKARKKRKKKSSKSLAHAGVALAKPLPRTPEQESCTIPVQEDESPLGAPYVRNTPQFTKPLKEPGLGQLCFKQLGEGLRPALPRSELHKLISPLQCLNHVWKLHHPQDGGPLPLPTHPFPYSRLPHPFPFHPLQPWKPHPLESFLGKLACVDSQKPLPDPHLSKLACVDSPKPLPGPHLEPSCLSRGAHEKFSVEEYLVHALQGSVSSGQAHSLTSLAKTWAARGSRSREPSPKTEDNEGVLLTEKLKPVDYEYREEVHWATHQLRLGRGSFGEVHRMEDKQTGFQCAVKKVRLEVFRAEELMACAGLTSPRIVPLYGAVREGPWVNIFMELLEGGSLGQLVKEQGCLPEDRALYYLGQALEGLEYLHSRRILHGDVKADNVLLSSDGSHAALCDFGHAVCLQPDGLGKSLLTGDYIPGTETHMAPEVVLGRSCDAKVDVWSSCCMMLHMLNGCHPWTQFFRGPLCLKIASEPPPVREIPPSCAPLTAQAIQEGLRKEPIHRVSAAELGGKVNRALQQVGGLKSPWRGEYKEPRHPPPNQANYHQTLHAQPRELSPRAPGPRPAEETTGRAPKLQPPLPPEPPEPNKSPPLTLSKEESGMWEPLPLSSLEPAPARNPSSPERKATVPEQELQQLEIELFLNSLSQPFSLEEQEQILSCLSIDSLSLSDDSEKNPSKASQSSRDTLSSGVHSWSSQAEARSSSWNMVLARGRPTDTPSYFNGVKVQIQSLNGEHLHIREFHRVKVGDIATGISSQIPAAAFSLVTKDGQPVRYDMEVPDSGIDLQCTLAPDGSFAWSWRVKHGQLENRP

SMILES | Ki [1] | pIC50 [2] | pIC50 [3]
CN1CC[C@@](O)(C#Cc2cccc(-c3nc(C(N)=O)ccc3F)c2)C1=O [Example 15, 5-fluoro-6-[3-[2-[(3R)-3-hydroxy-1-methyl-2-oxo-pyrrolidin-3-yl]ethynyl]phenyl] pyridine-2-carboxamide] | 1.21 nM | < 4.70 | 6.20
CC(C)c1cc(C(N)=O)nc(-c2cccc(C#C[C@]3(O)CCN(C)C3=O)c2)n1 [Example 16, 2-[3-[2-[(3R)-3-hydroxy-1-methyl-2-oxo-pyrrolidin-3-yl]ethynyl]phenyl]-6-isopropyl-pyrimidine-4-carboxamide] | 0.54 nM | < 4.70 | 6.72
CN1CC[C@@](O)(C#Cc2cccc(-c3nc(C(N)=O)cc(C(F)(F)F)n3)c2)C1=O [Example 17, 2-[3-[2-[(3R)-3-hydroxy-1-methyl-2-oxo-pyrrolidin-3-yl]ethynyl]phenyl]-6-(trifluoromethyl)pyrimidine-4-carboxamide] | 0.84 nM | < 4.70 | 6.65
COCC1CCCN1c1cc(C(N)=O)nc(-c2cccc(C#C[C@]3(O)CCN(C)C3=O)c2)n1 (stereo partly drawn) [Example 18, 2-[3-[2-[(3R)-3-hydroxy-1-methyl-2-oxo-pyrrolidin-3-yl]ethynyl]phenyl]-6-[2-(methoxymethyl)pyrrolidin-1-yl]pyrimidine-4-carboxamide] | 2.19 nM | < 4.70 | 7.41
CON(C)c1cc(C(N)=O)nc(-c2cccc(C#C[C@]3(O)CCN(C)C3=O)c2)n1 [Example 19, 2-[3-[2-[(3R)-3-hydroxy-1-methyl-2-oxo-pyrrolidin-3-yl]ethynyl]phenyl]-6-[methoxy (methyl)amino]pyrimidine-4-carboxamide] | 1.1 nM | < 4.70 | 7.34
CN1CC[C@@](O)(C#Cc2cccc(-c3nc(C(N)=O)cc(N4CCc5ccccc54)n3)c2)C1=O [Example 20, 2-[3-[2-[(3R)-3-hydroxy-1-methyl-2-oxo-pyrrolidin-3-yl]ethynyl]phenyl]-6-indolin-1-yl-pyrimidine-4-carboxamide] | 0.79 nM | 4.72 | 6.43
CN1CC[C@@](O)(C#Cc2cccc(-c3nc(C(N)=O)cc(N4CCCC45COC5)n3)c2)C1=O [Example 21, 2-[3-[2-[(3R)-3-hydroxy-1-methyl-2-oxo-pyrrolidin-3-yl]ethynyl]phenyl]-6-(2-oxa-8-azaspiro[3.4]octan-8-yl) pyrimidine-4-carboxamide] | 1.2 nM | < 4.70 | 7.07
C[C@@H]1CCN1c1cc(C(N)=O)nc(-c2cccc(C#C[C@]3(O)CCN(C)C3=O)c2)n1 [Example 22, 2-[3-[2-[(3R)-3-hydroxy-1-methyl-2-oxo-pyrrolidin-3-yl]ethynyl]phenyl]-6-[(2R)-2-methylazetidin-1-yl]pyrimidine-4-carboxamide] | 1.14 nM | < 4.70 | 7.07
C[C@H]1CCN1c1cc(C(N)=O)nc(-c2cccc(C#C[C@]3(O)CCN(C)C3=O)c2)n1 [Example 23, 2-[3-[2-[(3R)-3-hydroxy-1-methyl-2-oxo-pyrrolidin-3-yl]ethynyl]phenyl]-6-[(2S)-2-methylazetidin-1-yl] pyrimidine-4-carboxamide] | 1.48 nM | < 4.70 | 7.02
CN1CC[C@@](O)(C#Cc2cccc(-c3nc(C(N)=O)cc(N4CC[C@@H]4c4cccs4)n3)c2)C1=O [Example 26, 2-[3-[2-[(3R)-3-hydroxy-1-methyl-2-oxo-pyrrolidin-3-yl]ethynyl]phenyl]-6-[(2R)-2-(2-thienyl)azetidin-1-yl] pyrimidine-4-carboxamide] | 4.85 nM | < 4.70 | 6.96
CN1CC[C@@](O)(C#Cc2cccc(-c3nc(C(N)=O)cc(N4CC[C@H]4c4cccs4)n3)c2)C1=O [Example 27, 2-[3-[2-[(3R)-3-hydroxy-1-methyl-2-oxo-pyrrolidin-3-yl]ethynyl]phenyl]-6-[(2S)-2-(2-thienyl)azetidin-1-yl]pyrimidine-4-carboxamide] | 3.34 nM | < 4.70 | 7.06
CC(C)C[C@@H]1CCCN1c1cc(C(N)=O)nc(-c2cccc(C#C[C@]3(O)CCN(C)C3=O)c2)n1 [Example 28, 2-[3-[2-[(3R)-3-hydroxy-1-methyl-2-oxo-pyrrolidin-3-yl]ethynyl]phenyl]-6-[(2S)-2-isobutylpyrrolidin-1-yl] pyrimidine-4-carboxamide] | 2.38 nM | < 4.70 | 6.64
CN1CC[C@@](O)(C#Cc2cccc(-c3nc(N[C@@H]4CCOC4)cc(C(N)=O)n3)c2)C1=O [Example 31, 2-[3-[2-[(3R)-3-hydroxy-1-methyl-2-oxo-pyrrolidin-3-yl]ethynyl]phenyl]-6-[[(3R)-tetrahydrofuran-3-yl]amino] pyrimidine-4-carboxamide] | 0.93 nM | < 4.70 | 6.32
CN1CC[C@@](O)(C#Cc2cccc(-c3nccc(C(N)=O)n3)c2)C1=O [Example 32, 2-[3-[2-[(3R)-3-hydroxy-1-methyl-2-oxo-pyrrolidin-3-yl]ethynyl]phenyl] pyrimidine-4-carboxamide] | 0.22 nM | < 4.70 | 6.61
CN1CC[C@@](O)(C#Cc2cccc(-c3nc(C(N)=O)cc(-c4ccnn4C)n3)c2)C1=O [Example 33, 2-[3-[2-[(3R)-3-hydroxy-1-methyl-2-oxo-pyrrolidin-3-yl]ethynyl]phenyl]-6-(2-methylpyrazol-3-yl) pyrimidine-4-carboxamide] | < 0.05 nM | < 4.55 | 7.44
CN1CC[C@@](O)(C#Cc2cccc(-c3nc4c(c(C(N)=O)n3)CCCC4)c2)C1=O [Example 34, 2-[3-[2-[(3R)-3-hydroxy-1-methyl-2-oxo-pyrrolidin-3-yl]ethynyl]phenyl]-5,6,7,8-tetrahydroquinazoline-4-carboxamide] | 1.42 nM | < 4.70 | 6.86
CN1CC[C@@](O)(C#Cc2cccc(-c3nc4c(c(C(N)=O)n3)CC(C)(C)CC4)c2)C1=O [Example 35, 2-[3-[2-[(3R)-3-hydroxy-1-methyl-2-oxo-pyrrolidin-3-yl]ethynyl]phenyl]-6,6-dimethyl-7,8-dihydro-5H-quinazoline-4-carboxamide] | 2.23 nM | < 4.70 | 6.41
CN1CC[C@@](O)(C#Cc2cccc(-c3nc(C(N)=O)nc4ccsc34)c2)C1=O [Example 36, 4-[3-[2-[(3R)-3-hydroxy-1-methyl-2-oxo-pyrrolidin-3-yl]ethynyl]phenyl]thieno[3,2-d]pyrimidine-2-carboxamide] | 0.184 nM | < 4.70 | 6.50
CN1CC[C@@](O)(C#Cc2cccc(-c3nc(C(N)=O)c4sccc4n3)c2)C1=O [Example 37, 2-[3-[2-[(3R)-3-hydroxy-1-methyl-2-oxo-pyrrolidin-3-yl]ethynyl]phenyl]thieno[3,2-d]pyrimidine-4-carboxamide] | 0.12 nM | < 4.70 | 7.86
CN1CC[C@@](O)(C#Cc2cccc(-c3nc4c(c(C(N)=O)n3)CCC4)c2)C1=O [Example 38, 2-[3-[2-[(3R)-3-hydroxy-1-methyl-2-oxo-pyrrolidin-3-yl]ethynyl]phenyl]-6,7-dihydro-5H-cyclopenta [d]pyrimidine-4-carboxamide] | 0.19 nM | < 4.70 | 7.31
CN1CC[C@@](O)(C#Cc2cccc(-c3nc(C(N)=O)c4ccn(C)c4n3)c2)C1=O [Example 39, 2-[3-[2-[(3R)-3-hydroxy-1-methyl-2-oxo-pyrrolidin-3-yl]ethynyl]phenyl]-7-methyl-pyrrolo[2,3-d] pyrimidine-4-carboxamide] | 0.13 nM | 5.11 | 7.68
CN1CC[C@@](O)(C#Cc2cccc(-c3nc(C(N)=O)c4cccc(F)c4n3)c2)C1=O [Example 41, 8-fluoro-2-[3-[2-[(3R)-3-hydroxy-1-methyl-2-oxo-pyrrolidin-3-yl]ethynyl]phenyl]quinazoline-4-carboxamide] | 0.22 nM | < 4.70 | 7.58
CN1CC[C@@](O)(C#Cc2cccc(-c3nc(C(N)=O)c4cnn(C)c4n3)c2)C1=O [Example 42, 6-(3-[2-[(3R)-3-hydroxy-1-methyl-2-oxopyrrolidin-3-yl]ethynyl]phenyl)-1-methyl-1H-pyrazolo[3,4-d] pyrimidine-4-carboxamide] | 0.1 nM | < 4.70 | 7.96
